Source: patent publication US20070172957A1, “Methods of identifying anti-inflammatory macrolides” (TAISHO PHARMACEUTICAL CO., LTD., priority 2004, published 2007)

Test system: genes predictive for the anti-inflammatory macrolide effect
Assay: Genes statistically predictive of Clari response: differentially expressed with Clari but not the inactive macrolides MAA or Josa (Appendix E)
Format: cell-based
Source text: In the case of the above-mentioned (i) related to arachidonic acid biosynthesis, specifically, methods of the embodiment involve assaying whether a test macrolide alters biosynthesis of arachidonic acid, alters the expression or activities of enzymes involved in the biosynthesis or activation of arachidonic acid (e.g., arachidonic acid CoA synthetase, delta-6 desaturase, fatty acid elongase, and delta-5 desaturase, AA-related genes in Tables 2 and 3), or alters the expression of genes identified as predictive for the anti-inflammatory macrolide effect (Appendix E). Assays in which arachidonic acid or gene expression or enzymatic activity is detected can be carried out after contacting a cell with a test macrolide. Any cell line that secretes prostaglandin or produces arachidonic acid can be used. Epithelial and macrophages lines (e.g., A549 or THP-1) are suitable for this purpose; other cell lines can be identified by carrying out assays such as those described in the specific Examples, below. Alternatively, screening assays can be carried out after adding a test macrolide to an in vitro cell system (e.g., a cellular extract or liver microsome preparation) or an in vitro enzyme assay system.

CO[C@@H]1[C@@H](O[C@@H]2O[C@H](C)[C@@H](O[C@H]3C[C@@](C)(O)[C@@H](OC(=O)CC(C)C)[C@H](C)O3)[C@H](N(C)C)[C@H]2O)[C@@H](CC=O)C[C@@H](C)[C@@H](O)/C=C/C=C/C[C@@H](C)OC(=O)C[C@H]1OC(C)=O [josamycin]
0.97: group mean, gene NEDD8 (SpotID 49177, MAA and Josa vs. Clari) | mean group, TNFRSF10B (SpotID 49272, pooled group mean) | mean group, SpotID 49374 (SpotID 49374 (gene symbol not given), pooled group mean) | group mean, SpotID 49374 (gene symbol not given) (SpotID 49374, MAA and Josa vs. Clari) | group mean, gene UBC (SpotID 49514, MAA and Josa vs. Clari) | mean group, UBC (SpotID 49514, pooled group mean) | group mean, gene POU4F1 (SpotID 49608, MAA and Josa vs. Clari) | mean group, AD022 (SpotID 49800, pooled group mean) | group mean, gene SCOP (SpotID 50079, MAA and Josa vs. Clari) | mean group, SCOP (SpotID 50079, pooled group mean) | group mean, gene CEBPA (SpotID 50474, MAA and Josa vs. Clari) | mean group, BN51T (SpotID 50584, pooled group mean)
1.05: group mean, gene GLUD1 (SpotID 49047, MAA and Josa vs. Clari) | group mean, gene GNPI (SpotID 49546, MAA and Josa vs. Clari) | group mean, gene GSK3B (SpotID 49688, MAA and Josa vs. Clari) | group mean, gene CYC1 (SpotID 49820, MAA and Josa vs. Clari) | mean group, RFC1 (SpotID 49947, pooled group mean) | group mean, gene TFAM (SpotID 50386, MAA and Josa vs. Clari)
1.19: group mean, gene VTN (SpotID 49989, MAA and Josa vs. Clari)
0.85: group mean, gene ITGAE (SpotID 48921, MAA and Josa vs. Clari) | mean group, ITGAE (SpotID 48921, pooled group mean) | group mean, gene BCL2L2 (SpotID 49761, MAA and Josa vs. Clari)
0.91: group mean, gene RPLP0 (SpotID 49747, MAA and Josa vs. Clari) | group mean, gene ARHC (SpotID 50513, MAA and Josa vs. Clari) | mean group, ARHC (SpotID 50513, pooled group mean) | group mean, gene PDIR (SpotID 50639, MAA and Josa vs. Clari)
0.99: group mean, gene SLC35A2 (SpotID 49380, MAA and Josa vs. Clari) | group mean, gene HNRPD (SpotID 49715, MAA and Josa vs. Clari) | group mean, gene CHAF1B (SpotID 49737, MAA and Josa vs. Clari) | mean group, CHAF1B (SpotID 49737, pooled group mean) | group mean, gene LAMP2 (SpotID 49882, MAA and Josa vs. Clari) | group mean, gene SRC (SpotID 49990, MAA and Josa vs. Clari) | group mean, gene AGPAT1 (SpotID 50412, MAA and Josa vs. Clari) | group mean, gene COPB2 (SpotID 50654, MAA and Josa vs. Clari)
1.32: group mean, gene GNB2L1 (SpotID 50049, MAA and Josa vs. Clari)
0.88: mean group, LOC54543 (SpotID 49577, pooled group mean)
1.09: group mean, gene RRS1 (SpotID 49169, MAA and Josa vs. Clari) | mean group, RRS1 (SpotID 49169, pooled group mean) | group mean, gene CYC1 (SpotID 49787, MAA and Josa vs. Clari) | mean group, CYC1 (SpotID 49787, pooled group mean)
1.04: group mean, gene PPIB (SpotID 49314, MAA and Josa vs. Clari) | mean group, PPIB (SpotID 49314, pooled group mean)
1.01: group mean, gene SERPINB1 (SpotID 49117, MAA and Josa vs. Clari) | mean group, SERPINB1 (SpotID 49117, pooled group mean) | group mean, gene PIK3R3 (SpotID 49144, MAA and Josa vs. Clari) | group mean, gene YAF2 (SpotID 49172, MAA and Josa vs. Clari) | group mean, gene HNRPA3 (SpotID 49347, MAA and Josa vs. Clari) | group mean, gene GC20 (SpotID 49512, MAA and Josa vs. Clari) | group mean, gene TM7SF2 (SpotID 50294, MAA and Josa vs. Clari) | group mean, gene LOC51295 (SpotID 50349, MAA and Josa vs. Clari) | mean group, LOC51295 (SpotID 50349, pooled group mean) | mean group, GOCAP1 (SpotID 50421, pooled group mean) | mean group, SpotID 50591 (SpotID 50591 (gene symbol not given), pooled group mean) | group mean, SpotID 50591 (gene symbol not given) (SpotID 50591, MAA and Josa vs. Clari)
0.92: mean group, BTN3A2 (SpotID 49673, pooled group mean) | group mean, gene CAT (SpotID 49698, MAA and Josa vs. Clari) | group mean, gene PCYT2 (SpotID 49705, MAA and Josa vs. Clari) | group mean, gene PTPRT (SpotID 50550, MAA and Josa vs. Clari)
0.86: group mean, gene BCL2L2 (SpotID 49794, MAA and Josa vs. Clari)
0.94: group mean, gene NCBP2 (SpotID 49352, MAA and Josa vs. Clari) | group mean, gene BMP6 (SpotID 49981, MAA and Josa vs. Clari) | group mean, gene IKKE (SpotID 50342, MAA and Josa vs. Clari) | mean group, IKKE (SpotID 50342, pooled group mean) | group mean, gene AD022 (SpotID 50738, MAA and Josa vs. Clari) | mean group, AD022 (SpotID 50738, pooled group mean)
1.23: group mean, gene ATP2B4 (SpotID 49915, MAA and Josa vs. Clari) | mean group, ATP2B4 (SpotID 49915, pooled group mean)
0.84: mean group, BET1 (SpotID 50645, pooled group mean)
1.07: group mean, gene P4HA2 (SpotID 48971, MAA and Josa vs. Clari) | group mean, gene TRRAP (SpotID 49435, MAA and Josa vs. Clari) | mean group, TRRAP (SpotID 49435, pooled group mean) | mean group, HIF1A (SpotID 50022, pooled group mean) | group mean, gene PRKCBP1 (SpotID 50532, MAA and Josa vs. Clari) | group mean, gene PRKDC (SpotID 50736, MAA and Josa vs. Clari) | mean group, PRKDC (SpotID 50736, pooled group mean)
0.98: group mean, gene FUCA1 (SpotID 49197, MAA and Josa vs. Clari) | mean group, CSTF3 (SpotID 49606, pooled group mean) | mean group, SERPINF1 (SpotID 49679, pooled group mean) | group mean, gene P4HB (SpotID 49781, MAA and Josa vs. Clari) | mean group, IL10RB (SpotID 50267, pooled group mean) | group mean, gene BMP6 (SpotID 50319, MAA and Josa vs. Clari)
1.11: group mean, gene ARTS-1 (SpotID 49155, MAA and Josa vs. Clari) | mean group, ARTS-1 (SpotID 49155, pooled group mean)
0.74: group mean, gene AP1G2 (SpotID 49524, MAA and Josa vs. Clari) | mean group, AP1G2 (SpotID 49524, pooled group mean) | mean group, CKS2 (SpotID 50590, pooled group mean)
1.00: group mean, gene SRC (SpotID 49446, MAA and Josa vs. Clari) | mean group, SRC (SpotID 49446, pooled group mean) | group mean, gene DHCR24 (SpotID 49922, MAA and Josa vs. Clari) | group mean, gene CHERP (SpotID 50405, MAA and Josa vs. Clari) | group mean, gene GNB5 (SpotID 50689, MAA and Josa vs. Clari)
1.03: group mean, gene UNG (SpotID 48807, MAA and Josa vs. Clari) | group mean, gene BNIP3L (SpotID 49028, MAA and Josa vs. Clari) | mean group, BNIP3L (SpotID 49028, pooled group mean) | group mean, gene PPIB (SpotID 49142, MAA and Josa vs. Clari) | group mean, gene CLN2 (SpotID 49618, MAA and Josa vs. Clari) | mean group, CLN2 (SpotID 49618, pooled group mean) | group mean, gene KIAA0169 (SpotID 49930, MAA and Josa vs. Clari)
1.18: group mean, SpotID 50085 (gene symbol not given) (SpotID 50085, MAA and Josa vs. Clari)
0.83: group mean, gene UQCR (SpotID 50284, MAA and Josa vs. Clari) | mean group, MGP (SpotID 50511, pooled group mean)
1.12: group mean, gene VTN (SpotID 49490, MAA and Josa vs. Clari) | mean group, VTN (SpotID 49490, pooled group mean) | group mean, gene PSMC4 (SpotID 49580, MAA and Josa vs. Clari) | group mean, gene FGF2 (SpotID 49649, MAA and Josa vs. Clari)
0.89: group mean, gene CDR2 (SpotID 50302, MAA and Josa vs. Clari)
1.10: group mean, gene TEB4 (SpotID 49360, MAA and Josa vs. Clari) | mean group, TEB4 (SpotID 49360, pooled group mean) | group mean, gene NFYC (SpotID 50011, MAA and Josa vs. Clari)
0.95: group mean, gene MBTPS1 (SpotID 50067, MAA and Josa vs. Clari) | group mean, gene CNOT3 (SpotID 50099, MAA and Josa vs. Clari) | mean group, CNOT3 (SpotID 50099, pooled group mean) | group mean, gene RRBP1 (SpotID 50135, MAA and Josa vs. Clari) | group mean, SpotID 50216 (gene symbol not given) (SpotID 50216, MAA and Josa vs. Clari) | group mean, gene HK2 (SpotID 50224, MAA and Josa vs. Clari) | mean group, SRP19 (SpotID 50601, pooled group mean) | group mean, gene MAX (SpotID 50659, MAA and Josa vs. Clari)
1.02: group mean, gene FADS1 (SpotID 48998, MAA and Josa vs. Clari) | group mean, gene PRSS25 (SpotID 49006, MAA and Josa vs. Clari) | mean group, PRSS25 (SpotID 49006, pooled group mean) | group mean, gene PPP3CB (SpotID 49391, MAA and Josa vs. Clari) | group mean, gene GSK3B (SpotID 49735, MAA and Josa vs. Clari) | group mean, gene CCNE2 (SpotID 49967, MAA and Josa vs. Clari) | group mean, gene DAD1 (SpotID 50332, MAA and Josa vs. Clari) | group mean, gene DGCR6L (SpotID 50399, MAA and Josa vs. Clari)
0.87: group mean, gene IRF5 (SpotID 50103, MAA and Josa vs. Clari) | group mean, gene MMP15 (SpotID 50464, MAA and Josa vs. Clari)
0.90: group mean, gene LOC55871 (SpotID 49481, MAA and Josa vs. Clari) | mean group, NDUFA2 (SpotID 50050, pooled group mean) | group mean, gene IDI1 (SpotID 50084, MAA and Josa vs. Clari)
0.93: group mean, gene BBC3 (SpotID 49013, MAA and Josa vs. Clari) | group mean, gene MATN2 (SpotID 49511, MAA and Josa vs. Clari) | group mean, gene MAP3K10 (SpotID 49650, MAA and Josa vs. Clari) | group mean, gene USF2 (SpotID 49744, MAA and Josa vs. Clari) | group mean, gene FLJ13868 (SpotID 50222, MAA and Josa vs. Clari) | group mean, gene FGFR2 (SpotID 50337, MAA and Josa vs. Clari) | group mean, gene PROS1 (SpotID 50643, MAA and Josa vs. Clari)
1.08: group mean, gene TM9SF2 (SpotID 49007, MAA and Josa vs. Clari) | mean group, TM9SF2 (SpotID 49007, pooled group mean) | group mean, gene YWHAH (SpotID 49318, MAA and Josa vs. Clari) | mean group, YWHAH (SpotID 49318, pooled group mean)
1.16: mean group, CFL1 (SpotID 50351, pooled group mean)
0.96: group mean, gene TUBB (SpotID 48914, MAA and Josa vs. Clari) | group mean, gene SRRM1 (SpotID 49183, MAA and Josa vs. Clari) | group mean, gene APOE (SpotID 49233, MAA and Josa vs. Clari) | mean group, APOE (SpotID 49233, pooled group mean) | group mean, gene DDOST (SpotID 49757, MAA and Josa vs. Clari) | group mean, gene AD022 (SpotID 49767, MAA and Josa vs. Clari) | mean group, AD022 (SpotID 49767, pooled group mean) | group mean, gene MAX (SpotID 50307, MAA and Josa vs. Clari) | group mean, gene SIGIRR (SpotID 50452, MAA and Josa vs. Clari)
1.06: group mean, gene GSK3B (SpotID 49032, MAA and Josa vs. Clari) | group mean, gene LGALS3 (SpotID 49163, MAA and Josa vs. Clari) | group mean, gene ABCE1 (SpotID 49364, MAA and Josa vs. Clari) | group mean, gene EIF3S9 (SpotID 49373, MAA and Josa vs. Clari) | group mean, gene CDKN2C (SpotID 49815, MAA and Josa vs. Clari)
